From ChEMBL document CHEMBL1201862, “PubChem BioAssay data set” (2004)
Several values for one entry are separate records, joined by “and”; a condition that tells them apart may be missing. Equal values may be shown once.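 1) Cells in 96-well plates. 2) Compound, 48 h, 5 concentrations. 3) Linear interpolation between surrounding doses. 4) Unreached endpoint = highest concentration. Here, GI50 denotes the concentration required for 50% inhibition of growth.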 Activity calls are given as the source filed them. Cut-off read from the data, not from the text of the source: active = GI50 up to about 1.1 µM and inactive = higher. Where a SMILES comes first, the peptide text is derived from it. [ ]: non-standard residue; d: D form. Phe(4-NO2) = N[CH](Cc1ccc([N+](=O)[O-])cc1)C(=O)O

What was measured:
Test in all cases: DTP human tumour cell line panel, 48 h
A498 = tested on: A498
A549 = tested on: A549
CCRF-CEM = tested on: CCRF-CEM
HL-60 = tested on: HL-60
IGROV-1 = tested on: IGROV-1
K562 = tested on: K562
MCF7 = tested on: MCF7
MDA-MB-231 = tested on: MDA-MB-231
NCI/ADR-RES = tested on: NCI/ADR-RES
OVCAR-4 = tested on: OVCAR-4
OVCAR-5 = tested on: OVCAR-5
OVCAR-8 = tested on: OVCAR-8
PC-3 = tested on: PC-3
SF-268 = tested on: SF-268
SF-295 = tested on: SF-295
SK-OV-3 = tested on: SK-OV-3
SNB-75 = tested on: SNB-75
T47D = tested on: T47D
TK-10 = tested on: TK-10
Hs-578T = tested on: Hs-578T

| SMILES | GI50 (A498) | GI50 (A549) | GI50 (CCRF-CEM) | GI50 (HL-60) | GI50 (IGROV-1) | GI50 (K562) | GI50 (MCF7) | GI50 (MDA-MB-231) | GI50 (NCI/ADR-RES) | GI50 (OVCAR-4) | GI50 (OVCAR-5) | GI50 (OVCAR-8) | GI50 (PC-3) | GI50 (SF-268) | GI50 (SF-295) | GI50 (SK-OV-3) | GI50 (SNB-75) | GI50 (T47D) | GI50 (TK-10) | GI50 (Hs-578T) |
| --- | --- | --- | --- | --- | --- | --- | --- | --- | --- | --- | --- | --- | --- | --- | --- | --- | --- | --- | --- | --- |
| OC1(c2ccccc2)C2CCN(CC2)C1CN1CCOCC1 (stereo not given) | > 100 µM (inactive) | > 100 µM (inactive) | > 100 µM (inactive) | > 100 µM (inactive) | > 100 µM (inactive) | > 100 µM (inactive) | > 100 µM (inactive) | > 100 µM (inactive) | > 100 µM (inactive) | > 100 µM (inactive) | > 100 µM (inactive) | > 100 µM (inactive) | > 100 µM (inactive) | > 100 µM (inactive) | > 100 µM (inactive) | > 100 µM (inactive) | > 100 µM (inactive) | > 100 µM (inactive) | > 100 µM (inactive) |  |
| O=C(CCCN1CCC(Nc2ccc(F)cc2)(c2nnnn2C2CCCCC2)CC1)c1ccc(F)cc1 | 3.79 µM (inactive) | 13.1 µM (inactive) | 7.1 µM (inactive) | 6.52 µM (inactive) | 3.69 µM (inactive) | 3.98 µM (inactive) | 17.8 µM (inactive) | 16.6 µM (inactive) | 16.3 µM (inactive) | 12.9 µM (inactive) | 15.7 µM (inactive) | 23.6 µM (inactive) | 13.1 µM (inactive) | 12.8 µM (inactive) | 18.3 µM (inactive) | 3.39 µM (inactive) | 11.2 µM (inactive) |  | 15.3 µM (inactive) | 18.5 µM (inactive) |
| O=C(O)CNC(=O)c1c2ccccc2nc2ccccc12 | > 100 µM (inactive) | > 100 µM (inactive) | > 100 µM (inactive) |  | > 100 µM (inactive) | > 100 µM (inactive) | > 100 µM (inactive) | > 100 µM (inactive) | > 100 µM (inactive) | > 100 µM (inactive) | > 100 µM (inactive) | > 100 µM (inactive) | > 100 µM (inactive) | > 100 µM (inactive) | > 100 µM (inactive) | > 100 µM (inactive) | > 100 µM (inactive) |  | > 100 µM (inactive) |  |
| COc1ccc(/N=N/C(=O)NC(CC(C)C)C(=O)NC(Cc2ccccc2)C(=O)O)cc1 (stereo not given) | > 100 µM (inactive) | 2.12 µM (inactive) | 0.929 µM (active) | 0.685 µM (active) | 11.5 µM (inactive) | 0.287 µM (active) | 18.3 µM (inactive) |  | > 100 µM (inactive) | 57.5 µM (inactive) | 1.88 µM (inactive) | > 100 µM (inactive) | 0.463 µM (active) | 1.53 µM (inactive) | 1.62 µM (inactive) |  | 61.4 µM (inactive) | 1.06 µM (active) | > 100 µM (inactive) | > 100 µM (inactive) |
| CN(N=O)C(=O)Nc1c[nH]c(=O)[nH]c1=O | > 100 µM (inactive) | > 100 µM (inactive) | > 100 µM (inactive) | > 100 µM (inactive) | > 100 µM (inactive) | > 100 µM (inactive) | > 100 µM (inactive) | > 100 µM (inactive) | > 100 µM (inactive) | > 100 µM (inactive) | > 100 µM (inactive) | > 100 µM (inactive) | > 100 µM (inactive) |  | > 100 µM (inactive) | > 100 µM (inactive) | > 100 µM (inactive) | > 100 µM (inactive) | > 100 µM (inactive) |  |
| CC(=O)C1C(=O)C(=O)N(c2ccccc2)C1=O (stereo not given) |  | > 100 µM (inactive) | > 100 µM (inactive) | > 100 µM (inactive) | > 100 µM (inactive) |  | > 100 µM (inactive) | > 100 µM (inactive) | > 100 µM (inactive) | > 100 µM (inactive) | > 100 µM (inactive) | > 100 µM (inactive) | > 100 µM (inactive) | > 100 µM (inactive) | > 100 µM (inactive) | > 100 µM (inactive) | > 100 µM (inactive) |  | > 100 µM (inactive) | > 100 µM (inactive) |
| CCCCOC(=O)NC(Nc1ccc(S(=O)(=O)Nc2ccc(OC)nn2)cc1)(C(F)(F)F)C(F)(F)F | > 100 µM (inactive) | > 100 µM (inactive) | > 100 µM (inactive) | > 100 µM (inactive) | > 100 µM (inactive) | > 100 µM (inactive) | > 100 µM (inactive) | > 100 µM (inactive) | > 100 µM (inactive) | > 100 µM (inactive) | > 100 µM (inactive) | > 100 µM (inactive) | > 100 µM (inactive) | > 100 µM (inactive) | > 100 µM (inactive) | > 100 µM (inactive) |  | > 100 µM (inactive) | > 100 µM (inactive) |  |
| COc1ccc(/N=N/C(=O)NC(Cc2ccccc2)C(=O)O)cc1 (stereo not given) | > 100 µM (inactive) | > 100 µM (inactive) | > 100 µM (inactive) | > 100 µM (inactive) | > 100 µM (inactive) | > 100 µM (inactive) | > 100 µM (inactive) |  | > 100 µM (inactive) | > 100 µM (inactive) | > 100 µM (inactive) | > 100 µM (inactive) | 95.7 µM (inactive) | > 100 µM (inactive) | > 100 µM (inactive) |  | > 100 µM (inactive) | > 100 µM (inactive) | > 100 µM (inactive) | > 100 µM (inactive) |
| CCN1CC2=C(NC(=S)NC2c2ccc(Cl)cc2)/C(=C/c2ccc(Cl)cc2)C1 (stereo not given) | 23 µM (inactive) | 29.7 µM (inactive) | 14.5 µM (inactive) | 23.7 µM (inactive) | 42 µM (inactive) | 19.5 µM (inactive) | > 100 µM (inactive) | > 100 µM (inactive) | > 100 µM (inactive) | > 100 µM (inactive) | > 100 µM (inactive) | 88.5 µM (inactive) | 46.5 µM (inactive) | 77.4 µM (inactive) | 67.1 µM (inactive) | > 100 µM (inactive) | 23.1 µM (inactive) |  | > 100 µM (inactive) | 57.5 µM (inactive) |
| O=C1C(NS(=O)(=O)c2ccccc2)=C(n2cnc3ccccc32)C(=O)c2ccccc21 |  | > 100 µM (inactive) | 85.9 µM (inactive) | > 100 µM (inactive) | 52.8 µM (inactive) | > 100 µM (inactive) | > 100 µM (inactive) | 48.9 µM (inactive) | > 100 µM (inactive) | 34.5 µM (inactive) | > 100 µM (inactive) | > 100 µM (inactive) | > 100 µM (inactive) | 86.3 µM (inactive) | 57.4 µM (inactive) | > 100 µM (inactive) | 30.3 µM (inactive) |  | 89.3 µM (inactive) | 48.6 µM (inactive) |
| CC(=O)O[C@H]1C(=O)[C@@]2(C)[C@H]([C@H](OC(=O)c3ccccc3)[C@]3(O)C[C@H](OC(=O)[C@H](O)[C@@H](NC(=O)c4ccccc4)c4ccccc4)C(C)=C1C3(C)C)[C@]1(OC(C)=O)CO[C@@H]1C[C@@H]2O [PACLITAXEL] | 0.107 µM (active) |  | 0.00267 µM (active) | 0.00427 µM (active) | 0.00708 µM (active) |  | 0.00292 µM (active) | 0.054 µM (active) | 3.11 µM (inactive) | 0.486 µM (active) | 0.0783 µM (active) |  | 0.0182 µM (active) | 0.00658 µM (active) |  | 0.00881 µM (active) |  |  | 0.113 µM (active) | 0.00597 µM (active) |
| COC(=O)CCC(NC(=O)C(CCC(=O)OC)NC(=O)C(CCC(=O)OC)NC(=O)C(CCC(=O)OC)NC(=O)C(CCC(=O)OC)NC(=O)C(Cc1ccc([N+](=O)[O-])cc1)NC(=O)C(CCC(=O)OC)NC(=O)C(CCC(=O)OC)NC(=O)C(CCC(=O)OC)NC(=O)C(CCC(=O)OC)NC(=O)C(CCC(=O)OC)NC(C)=O)C(N)=O (stereo not given) (Ac-E(OMe)E(OMe)E(OMe)E(OMe)E(OMe)[Phe(4-NO2)]E(OMe)E(OMe)E(OMe)E(OMe)E(OMe)-NH2; configuration not given here) |  | > 100 µM (inactive) | > 100 µM (inactive) |  | > 100 µM (inactive) |  | > 100 µM (inactive) | 48.1 µM (inactive) | > 100 µM (inactive) | > 100 µM (inactive) | > 100 µM (inactive) | > 100 µM (inactive) |  | > 100 µM (inactive) | 31.4 µM (inactive) | 99.3 µM (inactive) | > 100 µM (inactive) |  | > 100 µM (inactive) | 20 µM (inactive) |
| N#Cc1c(-c2ccccc2)c(/C=N/c2ccc(Cl)cc2)c(=O)n2c1[nH]c1ccccc12 | > 100 µM (inactive) | 83.9 µM (inactive) | 21.4 µM (inactive) |  | > 100 µM (inactive) |  | > 100 µM (inactive) | > 100 µM (inactive) | > 100 µM (inactive) | > 100 µM (inactive) | > 100 µM (inactive) | > 100 µM (inactive) | > 100 µM (inactive) | > 100 µM (inactive) | 50.5 µM (inactive) | > 100 µM (inactive) | > 100 µM (inactive) | > 100 µM (inactive) | > 100 µM (inactive) |  |
| COC1C(OC(C)=O)CC(=O)OC(C)C/C=C/C=C\C(O)C(C)CC(CC=O)C1OC1OC(C)C(OC2CC(C)(O)C(OC(=O)CC(C)C)C(C)O2)C(N(C)C)C1O (stereo not given) | > 100 µM (inactive) and 70.3 µM (inactive) | > 100 µM (inactive) | 45.3 µM (inactive) and 33 µM (inactive) |  | 32.4 µM (inactive) and 25.6 µM (inactive) | 29.5 µM (inactive) and 51.2 µM (inactive) | > 100 µM (inactive) and 62.7 µM (inactive) | > 100 µM (inactive) | > 100 µM (inactive) | > 100 µM (inactive) and 68.5 µM (inactive) | > 100 µM (inactive) | > 100 µM (inactive) | 79.6 µM (inactive) | 56 µM (inactive) | > 100 µM (inactive) | > 100 µM (inactive) | > 100 µM (inactive) | > 100 µM (inactive) | > 100 µM (inactive) |  |
